Results published in patent US9458162B2, “Cyclic molecules as bruton's tyrosine kinase inhibitors” (Nanjing Allgen Pharma Co. Ltd., priority 2012, dated 2016).

Target: T1, Human BTK enzyme (Homo sapiens, UniProt Q06187)
T1 construct: Reaction Biology Corporation
Test: BTK inhibitory activity assay at Reaction Biology Corporation, peptide substrate
Assay type: biochemical
Settings: peptide substrate 20 μM, ATP 10 μM; for inhibition at 0.005 µM: read-out: Inhibition of ALK, IC50 (Inhibitory Activities of examples at 5 nM)

T1 sequence (Q06187 whole entry): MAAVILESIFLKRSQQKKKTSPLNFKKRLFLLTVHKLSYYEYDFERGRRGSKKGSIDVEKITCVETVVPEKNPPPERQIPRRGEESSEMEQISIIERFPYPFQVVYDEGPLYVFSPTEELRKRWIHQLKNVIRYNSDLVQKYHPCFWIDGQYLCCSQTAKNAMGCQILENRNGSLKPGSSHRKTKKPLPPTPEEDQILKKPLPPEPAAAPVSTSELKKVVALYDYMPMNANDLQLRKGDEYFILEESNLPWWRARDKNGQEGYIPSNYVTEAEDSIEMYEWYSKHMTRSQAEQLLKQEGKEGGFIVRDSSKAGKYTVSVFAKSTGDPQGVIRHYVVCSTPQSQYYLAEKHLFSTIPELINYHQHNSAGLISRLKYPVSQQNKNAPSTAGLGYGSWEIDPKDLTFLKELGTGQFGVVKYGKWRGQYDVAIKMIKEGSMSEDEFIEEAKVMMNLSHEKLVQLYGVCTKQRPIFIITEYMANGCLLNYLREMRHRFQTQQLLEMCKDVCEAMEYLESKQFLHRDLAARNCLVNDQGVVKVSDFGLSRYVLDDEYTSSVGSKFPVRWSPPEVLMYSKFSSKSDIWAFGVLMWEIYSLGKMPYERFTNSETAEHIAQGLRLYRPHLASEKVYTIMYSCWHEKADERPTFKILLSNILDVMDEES

| Compound | inhibition at 0.005 µM (compound at 5 nM) [%] | IC50 [nM] | percent inhibition of BTK at 5 nM (compound at 5 nM) [%] |
| --- | --- | --- | --- |
| C=CC(=O)N1CCC2(CC1)CC(n1nc(-c3ccc(Oc4ccccc4)cc3)c3c(N)ncnc31)C2 [Example 2, 1-(2-(4-amino-3-(4-phenoxyphenyl)-1H-pyrazolo[3,4-d]pyrimidin-1-yl)-7-azaspiro[3.5]nonan-7-yl)prop-2-en-1-one] | 80.1 | – | – |
| C=CC(=O)N1CC2(CC(n3nc(-c4ccc(Oc5ccccc5)cc4)c4c(N)ncnc43)C2)C1 [Example 1, 1-(6-(4-Amino-3-(4-phenoxyphenyl)-1H-pyrazolo[3,4-d]pyrimidin-1-yl)-2-azaspiro[3.3]heptan-2-yl)prop-2-en-1-one] | 98.5 | 1.48 | – |

Further lines, results first:

| inhibition at 0.005 µM (compound at 5 nM) [%] | IC50 [nM] | percent inhibition of BTK at 5 nM (compound at 5 nM) [%] | Compound |
| --- | --- | --- | --- |
| – | – | 97.9 | C=CC(=O)N1CCCC2(CC(n3nc(-c4ccc(Oc5ccccc5)cc4)c4c(N)ncnc43)C2)C1 (stereo not drawn) [Example 4B, 1-(2-(4-amino-3-(4-phenoxyphenyl)-1H-pyrazolo[3,4-d]pyrimidin-1-yl)-6-azaspiro[3.5]nonan-6-yl)prop-2-en-1-one] |
| 96.4 | – | – | C=CC(=O)N1CC2(CCC(n3nc(-c4ccc(Oc5ccccc5)cc4)c4c(N)ncnc43)CC2)C1 [Example 3, 1-(7-(4-amino-3-(4-phenoxyphenyl)-1H-pyrazolo[3,4-d]pyrimidin-1-yl)-2-azaspiro[3.5]nonan-2-yl)prop-2-en-1-one] |
| 85.7 | – | – | C=CC(=O)N1CCCC2(CC(n3nc(-c4ccc(Oc5ccccc5)cc4)c4c(N)ncnc43)C2)C1 (stereo not drawn) [Example 4A, 1-(2-(4-amino-3-(4-phenoxyphenyl)-1H-pyrazolo[3,4-d]pyrimidin-1-yl)-6-azaspiro[3.5]nonan-6-yl)prop-2-en-1-one] |
